“Also recorded” adds a separate entry of the source.
How the values were obtained:
E. coli = test: Biofilm resistance of UV-cured coatings after E. coli growth and staining; format: cell-based; settings: for biofilm resistance (lack of blue coloring): 15 and 20 weight % monomer in the coating; for biofilm formation: 15 and 20 weight percent monomer, increased E. coli broth concentration, approaching 10^9 cells/mL
Source text: Materials and methods were the same as disclosed in the Examples 1 and 2, above, except that the polymers were not adhered to steel, but to 24-well, plastic (i.e., poly(styrene)) culture plates.
The coatings were applied to and UV-cured onto four uncoated 24-well plastic plates to a calculated thickness of two mils. The monomers of the compositions were phenyl acrylate (PA) as the non-biofilm resistant control monomer, 3-chlorophenyl acrylate (CPA), 2,4-dichlorophenyl acrylate (DCPA), 4-bromophenyl acrylate (BPA) and 2,4-dibromophenyl acrylate (DBPA).
The coatings were cured with the curing apparatus and sterilized with 95% ethanol. E. coli was grown in a LB agar broth and added to the cell plates with sterile, deionized water at four concentrations, one concentration per plate. The plates were incubated for twenty-four hours at 37° C. The E. coli was then rinsed from the plates with sterile, deionized water and sprayed with the cytology fixative [poly(ethylene glycol)-based]. After the fixative was air dried it was soaked with 95% ethanol for ten minutes for further sterilization. The plates were then rinsed with sterile, deionized water and four drops of Hema-diff solution were added for four seconds.

[1] = Roughness of cured coatings by atomic force microscopy (Sy, peak to valley distance); format: physicochemical; settings: 5, 10, 15 and 20 weight percent monomer in the coating; FIGS. 1 and 2
Experimental: To determine the roughness of the cured formulations, polymers consisting of each of five monomers were tested using atomic force microscopy (AFM) scanning and applying the non-contact mode dragging of the cantilever. Each of the polymers consisting of the monomers: phenyl acrylate (PA), 3-chlorophenyl acrylate (CPA), 2,4-dichlorophenyl acrylate (DCPA), 4-bromophenyl acrylate (BPA) and 2,4-dibromophenyl acrylate (DBPA) were tested at 5, 10, 15 and 20 percent of the monomer by weight (the “Coating Level”).
Each scanning location was approximately an 80 μm×80 μm area (6400 μm^2). To eliminate the effects of interference on the roughness measurements, two scans were taken at each location in the X and Y direction. These two roughness calculations were averaged to yield the roughness calculation for each location. Three locations were selected for each plate and then the average roughness was calculated for all three locations in order to minimize statistical variance yielding an overall plate roughness average, Sa as determined via Equation 1.
[formula] […] The following equation was used to determine the average peak to valley distance, Sy value, (Equation 2) for each composition at each coating level. Sy=Speak−Svalley Equation 2 The Sy value is the value typically used in the industry to determine the propensity for biofilm resistance of a smooth surface.

Row | SMILES | biofilm resistance (lack of blue coloring) (E. coli; FIG. 4) | biofilm formation (E. coli) | bacterial growth on the coating (blue tinting) (E. coli; coating containing the internal control monomer, 24 h at 37° C., FIG. 4) | biofilm inhibitory activity (E. coli; monomer without halogens, used as internal standard or control) | smoothness of the coating (Sy) [1]
1 | C=CC(=O)Oc1ccc(Br)cc1Br [DBPA, 2,4-dibromophenyl acrylate] | excellent biofilm resistance | no evidence of biofilm formation |  |  | 
2 | C=CC(=O)Oc1cccc(Cl)c1 [CPA, 3-chlorophenyl acrylate] | excellent biofilm resistance | no evidence of biofilm formation |  |  | 
3 | C=CC(=O)Oc1ccccc1 [PA, phenyl acrylate, reference compound] |  |  | bacterial growth | no biofilm inhibitory activity; also recorded: biologically inactive | did not enhance the smoothness
4 | C=CC(=O)Oc1ccc(Cl)cc1Cl [DCPA, 2,4-dichlorophenyl acrylate] | excellent biofilm resistance | no evidence of biofilm formation |  |  | 

Reference: US9591848B2, “Biofilm resistant polymer materials” (Abilene Christian Univ., priority 2008, dated 2017)
